# According to PMC3025922 (BMC Biology, 2010):
# Values joined by “and” are separate entries in the source; they are usually repeats but may differ in a detail not shown here. Equal entries are not always repeated.
# Columns and labels:
# [1] = test system: LNCaP cells; assay: Cell cycle analysis by flow cytometry, LNCaP; assay type: cell-based, human
# Description: (§1) Cells were exposed to SMIPs (40 μM) for 24 h and 48 h. Cells were trypsinized, washed with PBS and suspended in 600 μL PBS. Cells were fixed by adding 1.4 mL cold absolute ethanol and kept at -20°C for at least 12 h. After washing once with PBS, the cells were resuspended in 250 μL PBS containing 2.5 μg RNAse A and incubated for 45 min at room temperature. Staining was done by adding 40 μg/mL of propidium iodine followed by incubation for 15 min at room temperature. DNA-bound fluorescence was read at 564 to 606 nm using FACSort and FACSCanto flow cytometers (BD Biosciences) at the Flow Cytometry Facility of the Sanford-Burnham Medical Research Institute. Distribution of cells in the different cell cycle phase was determined with ModFit LT 3.2.1 or FlowJo 8.6 software. Aggregates were excluded from the analysis manually using pulse shape or identified by automated modelling in ModFit LT.
# [2] = test system: LNCaP-S14 cells; assay: Cell Death Detection ELISA (cytoplasmic histone-associated DNA fragments); assay type: cell-based, human
# Description: Apoptosis was measured using the Cell Death Detection ELISA (Roche, Basel, Switzerland) following the manufacturer's instructions. Briefly, LNCaP-S14 cells (0.1 × 10^6) were seeded in 12-well plates and treated with SMIPs (40 μM) for 24 h. Cells were collected in medium, spun at 1000 rpm, and resuspended in 1 mL PBS at the specified time points (day 1 to day 3). The cell suspension was divided into two parts. The first half was used for determination of cytoplasmic histone-associated DNA fragments (ELISA), the second for protein determination to normalize the ELISA data to the amount of input protein.
# [3] = test system: p27 protein levels in LNCaP cells; assay: Immunoblot quantification of p27, LNCaP; assay type: cell-based, human
# Description: (§2) Total cell lysate from cells treated with vehicle (DMSO) or compounds were obtained by incubating cells in lysis buffer (25 mM Tris-HCl pH 7.4, 150 mM NaCl, 0.5% Triton X-100, protease inhibitors) for 15 min at 4°C. The supernatant was collected by centrifugation and the amount of protein was determined with a Bio-Rad protein assay (Bio-Rad) using BSA as standard. Equal amounts of protein were subjected to SDS-PAGE (4%-20% gels, Invitrogen) and transferred to PVDF membranes. The membranes were blocked with TBST (50 mM Tris-HCl pH 7.5, 150 mM NaCl, 0.05% Tween-20) containing 5% non-fat dry milk or bovine serum albumin (BSA) for 1 h at room temperature, followed by incubation in primary antibodies 4°C overnight. Membranes were washed and incubated with secondary antibodies conjugated to HRP (Jackson ImmunoResearch Laboratories) for 1 h at room temperature. Signals were visualized using the ECL Western Blotting Substrate (Pierce Biotechnology, IL, USA) according to the manufacturer's instructions. Membranes were stripped using Restore™ Western Blot Stripping Buffer (Pierce Biotechnology). Films were scanned and quantification of the bands was performed using Image J software http://rsbweb.nih.gov/ij/.
# [4] = test system: LNCaP-S14 cells; assay: MTT cytotoxicity assay, LNCaP-S14; conditions: Homo sapiens, 72 h, read-out: IC50 (MTT cytotoxicity)
# Description: LNCaP-S14 (10,000 cells), PC3, DU145 or IMR90 cells (5000 cells) were seeded in 96-well plates and treated with increasing concentrations of the respective SMIPs for 72 h. Cell viability was assessed using the MTT cell proliferation assay (ATCC®, Middlesex, UK) according to the manufacturer's protocol. IC50 was calculated using the BioDataFit 1.02 software http://www.changbioscience.com/stat/ec50.html.
# [5] = test system: LNCaP-S14 cells; assay: Cell cycle analysis by flow cytometry, LNCaP-S14; assay type: cell-based, human
# Description: as §1
# [6] = test system: p21 protein levels in HeLa cells; assay: Immunoblot quantification of p21, HeLa; assay type: cell-based, human
# Description: as §2
smiles,measurement,setting,value
CC(C)(C)c1cc2cc(NC(=O)c3cccs3)ccc2[nH]1 [SMIP001],Cell cycle distribution G1,[1],84.5 and 83.6
same,Cell cycle distribution G2,[1],7.6 and 6.6
same,Cell cycle distribution S,[1],6.6 and 8.5
same,increase in the amount of mono and oligonucleosomes,[2],three- to fivefold
same,"p27 protein level (immunoblot, DMSO = 1.0)",[3],1.5 ± 0.7
same,IC50,[4],4.63 µM
same,Cell cycle distribution G1,[5],84.8 and 86.8
same,Cell cycle distribution G2,[5],6.3 and 3.5
same,Cell cycle distribution S,[5],7.2 and 6.9
same,"p21 protein level (immunoblot, DMSO = 1.0)",[6],1.1 ± 0.2
